# Data published in patent US11083725B2 (priority 2014, dated 2021).
# System: NHBE cells
# Experiment: Biolog metabolic array: substrate use by NHBE cells with or without CA09 infection
# Type: cell-based, human
# Settings: for Substrate use, 590 nm absorbance normalized to zero hour, 1 hr: Biolog PMM2, 1 hr; for Substrate use, 590 nm absorbance normalized to zero hour, 5 hr: Biolog PMM2, 5 hr; for Substrate use, 590 nm absorbance normalized to zero hour, 7 hr: Biolog PMM2, 7 hr
# [1] = Control (uninfected) NHBE cells
# [2] = Virus (CA09-infected, MOI 1) NHBE cells
# [3] = Virus: CA09-infected NHBE cells, MOI 1, Biolog PMM2
# [4] = Virus (CA09-infected NHBE cells, MOI 1)
SMILES,"590 nm absorbance normalized to zero hour (substrate use), 1 hr [1]","590 nm absorbance normalized to zero hour (substrate use), 3 hr [1]","590 nm absorbance normalized to zero hour (substrate use), 4 hr [1]","590 nm absorbance normalized to zero hour (substrate use), 6 hr [1]","590 nm absorbance normalized to zero hour (substrate use), 8 hr [1]","590 nm absorbance normalized to zero hour (substrate use), 9 hr [1]","590 nm absorbance normalized to zero hour (substrate use), 10 hr [1]","590 nm absorbance normalized to zero hour (substrate use), 11 hr [1]","Substrate use, 590 nm absorbance normalized to zero hour, 1 hr [1]","Substrate use, 590 nm absorbance normalized to zero hour, 5 hr [1]","Substrate use, 590 nm absorbance normalized to zero hour, 7 hr [1]","590 nm absorbance normalized to zero hour (substrate use), 1 hr [3]","590 nm absorbance normalized to zero hour (substrate use), 2 hr [3]","590 nm absorbance normalized to zero hour (substrate use), 3 hr [3]","590 nm absorbance normalized to zero hour (substrate use), 4 hr [3]","590 nm absorbance normalized to zero hour (substrate use), 5 hr [3]","590 nm absorbance normalized to zero hour (substrate use), 6 hr [3]","590 nm absorbance normalized to zero hour (substrate use), 7 hr [3]","590 nm absorbance normalized to zero hour (substrate use), 8 hr [3]","590 nm absorbance normalized to zero hour (substrate use), 9 hr [3]",other results
NCCCC(=O)O [g-Amino Butyric Acid],1.25,1.42,1.47,3.94,1.09,2.20,1.13,2.55,1.25,1.52,1.05,1.68,2.39,2.83,2.96,3.40,3.56,3.70,3.84,3.99,"590 nm absorbance normalized to zero hour (substrate use), 0 hr [1]: 1.00; Substrate use, 590 nm absorbance normalized to zero hour, 0 hr (Control (uninfected) NHBE cells, Biolog PMM2, 0 hr): 1.00; 590 nm absorbance normalized to zero hour (substrate use), 0 hr [2]: 1.00; 590 nm absorbance normalized to zero hour (substrate use), 1 hr [2]: 1.68; 590 nm absorbance normalized to zero hour (substrate use), 2 hr [2]: 2.39; 590 nm absorbance normalized to zero hour (substrate use), 3 hr [2]: 2.83; 590 nm absorbance normalized to zero hour (substrate use), 4 hr [2]: 2.96; 590 nm absorbance normalized to zero hour (substrate use), 5 hr [2]: 3.40; 590 nm absorbance normalized to zero hour (substrate use), 6 hr [2]: 3.56; 590 nm absorbance normalized to zero hour (substrate use), 7 hr [2]: 3.70; 590 nm absorbance normalized to zero hour (substrate use), 8 hr [2]: 3.84; 590 nm absorbance normalized to zero hour (substrate use), 9 hr [2]: 3.99; 590 nm absorbance normalized to zero hour (substrate use), 10 hr [2]: 3.94; 590 nm absorbance normalized to zero hour (substrate use), 11 hr [2]: 3.74; 590 nm absorbance normalized to zero hour (substrate use), 0 hr [3]: 1.00; 590 nm absorbance normalized to zero hour (substrate use), 10 hr [3]: 3.94; 590 nm absorbance normalized to zero hour (substrate use), 11 hr [3]: 3.74"
Nc1ncnc2c1ncn2[C@@H]1O[C@H](CO)[C@@H](O)[C@H]1O [Adenosine],2.85,1.67,1.86,2.50,3.10,3.78,3.46,3.32,2.85,2.21,2.97,1.39,1.23,1.60,1.77,1.96,2.16,2.38,2.56,2.88,"590 nm absorbance normalized to zero hour (substrate use), 2 hr [1]: 1.34; 590 nm absorbance normalized to zero hour (substrate use), 1 hr [4]: 1.39; 590 nm absorbance normalized to zero hour (substrate use), 2 hr [4]: 1.23; 590 nm absorbance normalized to zero hour (substrate use), 3 hr [4]: 1.60; 590 nm absorbance normalized to zero hour (substrate use), 4 hr [4]: 1.77; 590 nm absorbance normalized to zero hour (substrate use), 5 hr [4]: 1.96; 590 nm absorbance normalized to zero hour (substrate use), 6 hr [4]: 2.16; 590 nm absorbance normalized to zero hour (substrate use), 7 hr [4]: 2.38; 590 nm absorbance normalized to zero hour (substrate use), 8 hr [4]: 2.56; 590 nm absorbance normalized to zero hour (substrate use), 9 hr [4]: 2.88; 590 nm absorbance normalized to zero hour (substrate use), 10 hr [4]: 2.56; 590 nm absorbance normalized to zero hour (substrate use), 11 hr [4]: 2.60; 590 nm absorbance normalized to zero hour (substrate use), 10 hr [3]: 2.56; 590 nm absorbance normalized to zero hour (substrate use), 11 hr [3]: 2.60"
CC(=O)CC(=O)O [Acetoacetic Acid],1.24,2.22,2.13,0.39,1.52,1.66,1.49,2.20,1.24,2.15,1.53,1.26,1.40,1.48,1.54,1.64,1.67,1.71,1.74,1.81,"590 nm absorbance normalized to zero hour (substrate use), 2 hr [1]: 1.37; 590 nm absorbance normalized to zero hour (substrate use), 1 hr [2]: 1.26; 590 nm absorbance normalized to zero hour (substrate use), 2 hr [2]: 1.40; 590 nm absorbance normalized to zero hour (substrate use), 3 hr [2]: 1.48; 590 nm absorbance normalized to zero hour (substrate use), 4 hr [2]: 1.54; 590 nm absorbance normalized to zero hour (substrate use), 5 hr [2]: 1.64; 590 nm absorbance normalized to zero hour (substrate use), 6 hr [2]: 1.67; 590 nm absorbance normalized to zero hour (substrate use), 7 hr [2]: 1.71; 590 nm absorbance normalized to zero hour (substrate use), 8 hr [2]: 1.74; 590 nm absorbance normalized to zero hour (substrate use), 9 hr [2]: 1.81; 590 nm absorbance normalized to zero hour (substrate use), 10 hr [2]: 1.74; 590 nm absorbance normalized to zero hour (substrate use), 11 hr [2]: 1.81; 590 nm absorbance normalized to zero hour (substrate use), 10 hr [3]: 1.74; 590 nm absorbance normalized to zero hour (substrate use), 11 hr [3]: 1.81"
